The values that follow are results of earlier work, collected in patent US4024245A, “Antibiotic A-30912 and process for production thereof” (priority 1976, dated 1977).

This series deals with dermatophytes. Conditions: F. Benz et al., Helv. Chim. Acta 57, 2459-2477 (1974).

Regarding Echinocandin B, the activity against dermatophytes entry was “inactive against dermatophytes”.
